Measured values from article PMC4923880, “Urbilaterian origin of paralogous GnRH and corazonin neuropeptide signalling pathways” (Scientific Reports, 2016).
Square brackets hold non-standard residues; d marks the D form. Ends that are not written are not given here. Peptide text beside a SMILES is read from it. pGlu = O=C1CC[C@@H](C(=O)O)N1

What was measured:
[1] = system: cells transfected with an empty vector; assay: Bioluminescence assay, cells transfected with an empty vector (control); type: cell-based, Chinese hamster; details: data not shown
From the text: ArGnRHR and ArCRZR were cloned as described previously[23] and the positions of the primers used are indicated in Supplementary Figures S1 and S2. Next, the ORF of ArGnRHR was amplified using the oligos 5′-aagcttCACCATGGCGACTACATC-3′ and 5′-ctcgagTTATACACATTTCTCAG-3′ and subcloned into the eukaryotic expression vector pcDNA 3.1+ (Invitrogen) that was cut with HindIII and XhoI; The ORF of ArCRZR was amplified using the oligos 5′- gatatcCACCATGAGTGTTCAAT-3′ and 5′-tctagaTCAGGTTGTTGTTGTGA-3′ and subcloned into pcDNA 3.1+ that was cut with EcoRV and XbaI. A partial Kozak translation initiation sequence (CACC) was also introduced in the upstream primer. […] The A. rubens neuropeptides pQIHYKNPGWGPG-NH2 and HNTFTMGGQNRWKAG-NH2 were custom synthesized by PPR Ltd (Fareham, UK) and were tested as candidate ligands for ArGnRHR and ArCRZR at concentrations ranging from 10^−4 M to 10^−14 M. Ca^2+ responses were normalized to the total Ca^2+ response monitored after addition of Triton X-100 (0.1%). Dose–response data were determined as a % of the highest response (100% activation). EC50 values were calculated from dose–response curves based on at least three independent transfections (Prism 6.0). […]

ArGnRHR = ArGnRHR (Asterias rubens, UniProt A0A1B0YGS0); assay: Bioluminescence (Ca2+) receptor activation assay, ArGnRHR in CHO-K1 cells with aequorin and Gα16; type: cell-based; details: for activation of ArGnRHR (bioluminescence response, in words) / activation of ArGnRHR by other GnRH/CRZ-type or starfish neuropeptides (in words): CHO-K1/aequorin/Gα16 cells; for activation of ArGnRHR (bioluminescence response, in words): concentrations 10^−4 M to 10^−14 M, peptide 2 over the same concentration range as peptide 1; for activation of ArGnRHR by other GnRH/CRZ-type or starfish neuropeptides (in words): 10 μM, Supplementary Figure S8
Sequence of ArGnRHR (A0A1B0YGS0 entry or part of it): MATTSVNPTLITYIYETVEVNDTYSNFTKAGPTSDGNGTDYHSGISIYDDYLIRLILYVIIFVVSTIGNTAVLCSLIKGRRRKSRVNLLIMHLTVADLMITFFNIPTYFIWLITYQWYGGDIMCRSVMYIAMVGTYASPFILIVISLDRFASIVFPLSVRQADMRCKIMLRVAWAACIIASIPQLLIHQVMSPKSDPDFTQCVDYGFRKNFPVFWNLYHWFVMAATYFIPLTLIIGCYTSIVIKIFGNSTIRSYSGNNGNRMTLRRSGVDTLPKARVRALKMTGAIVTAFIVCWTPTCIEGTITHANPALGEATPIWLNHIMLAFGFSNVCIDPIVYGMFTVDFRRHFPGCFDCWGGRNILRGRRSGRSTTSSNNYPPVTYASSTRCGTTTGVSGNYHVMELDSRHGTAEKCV
From the text: (§1) ArGnRHR and ArCRZR were cloned as described previously[23] and the positions of the primers used are indicated in Supplementary Figures S1 and S2. Next, the ORF of ArGnRHR was amplified using the oligos 5′-aagcttCACCATGGCGACTACATC-3′ and 5′-ctcgagTTATACACATTTCTCAG-3′ and subcloned into the eukaryotic expression vector pcDNA 3.1+ (Invitrogen) that was cut with HindIII and XhoI; The ORF of ArCRZR was amplified using the oligos 5′- gatatcCACCATGAGTGTTCAAT-3′ and 5′-tctagaTCAGGTTGTTGTTGTGA-3′ and subcloned into pcDNA 3.1+ that was cut with EcoRV and XbaI. A partial Kozak translation initiation sequence (CACC) was also introduced in the upstream primer. Chinese hamster ovary (CHO)-K1 cells stably overexpressing the human Gα16 protein and mitochondrial targeted apo-aequorin were used as a heterologous expression system to functionally characterize the receptors. Cells were cultured, transfected and a bioluminescence assay performed as described previously. The A. rubens neuropeptides pQIHYKNPGWGPG-NH2 and HNTFTMGGQNRWKAG-NH2 were custom synthesized by PPR Ltd (Fareham, UK) and were tested as candidate ligands for ArGnRHR and ArCRZR at concentrations ranging from 10^−4 M to 10^−14 M. Ca^2+ responses were normalized to the total Ca^2+ response monitored after addition of Triton X-100 (0.1%). Dose–response data were determined as a % of the highest response (100% activation). EC50 values were calculated from dose–response curves based on at least three independent transfections (Prism 6.0). Other GnRH/CRZ-type neuropeptides ([…] and […]) and other starfish neuropeptides (NGFFYamide, SALMFamide-1 and SALMFamide-2[16][24]) were also tested (at 10 μM) to assess the specificity of receptor activation.

ArCRZR = ArCRZR (Asterias rubens, UniProt A0A1B0YGT7); assay: Bioluminescence (Ca2+) receptor activation assay, ArCRZR in CHO-K1 cells with aequorin and Gα16; type: cell-based; details: for activation of ArCRZR by other GnRH/CRZ-type or starfish neuropeptides (in words): 10 μM, Supplementary Figure S8
Sequence of ArCRZR (A0A1B0YGT7 entry or part of it): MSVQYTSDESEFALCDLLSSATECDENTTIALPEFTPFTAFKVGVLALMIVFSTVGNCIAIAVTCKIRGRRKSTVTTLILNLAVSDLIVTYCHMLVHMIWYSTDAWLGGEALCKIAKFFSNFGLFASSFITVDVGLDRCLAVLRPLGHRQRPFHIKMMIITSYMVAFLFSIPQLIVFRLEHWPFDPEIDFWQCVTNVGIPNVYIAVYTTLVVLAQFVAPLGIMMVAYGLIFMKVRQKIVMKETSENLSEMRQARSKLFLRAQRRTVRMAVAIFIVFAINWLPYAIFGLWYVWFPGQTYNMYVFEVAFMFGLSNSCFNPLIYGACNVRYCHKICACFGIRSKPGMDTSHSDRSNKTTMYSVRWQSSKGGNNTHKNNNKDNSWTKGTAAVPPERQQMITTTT
From the text: as §1

GnRH-type receptors = details: two GnRH-type receptors; ref [14]; cited from earlier work
From the text: (§2) It is not known, however, if this predicted mature peptide actually exists in B. floridae. […] Thus, it remains to be established whether or not distinct GnRH-type and CRZ-type signalling pa ...

CRZ-type receptor = details: one of two CRZ-type receptors; ref [14]; cited from earlier work
From the text: as §2

CC[C@H](C)[C@H](NC(=O)[C@@H]1CCC(=O)N1)C(=O)N[C@@H](Cc1c[nH]cn1)C(=O)N[C@@H](Cc1ccc(O)cc1)C(=O)N[C@@H](CCCCN)C(=O)N[C@@H](CC(N)=O)C(=O)N1CCC[C@H]1C(=O)NCC(=O)N[C@@H](Cc1c[nH]c2ccccc12)C(=O)NCC(=O)N1CCC[C@H]1C(=O)NCC(N)=O [peptide 1] ([pGlu]IHYKNPGWGPG-NH2)
response of cells transfected with an empty vector (in words) [1]: Neither peptide 1 nor peptide 2 elicited any response | EC50 (ArGnRHR): 0.603 nM | activation of ArGnRHR (bioluminescence response, in words) (ArGnRHR): dose-dependent activation | activation of ArGnRHR (bioluminescence response, in words) (ArGnRHR; listed as Peptide 1): dose-dependent stimulation of a bioluminescence response | activation of ArGnRHR (bioluminescence response, in words) (ArGnRHR; listed as pQIHYKNPGWGPG-NH2): specifically activates an A. rubens GnRH-type receptor | activation of ArCRZR (bioluminescence response, in words) (ArCRZR; CHO-K1/aequorin/Gα16 cells, concentrations 10^−4 M to 10^−14 M, peptide 1 over a similar concentration range as peptide 2): no effect

CSCC[C@H](NC(=O)[C@@H](NC(=O)[C@H](Cc1ccccc1)NC(=O)[C@@H](NC(=O)[C@H](CC(N)=O)NC(=O)[C@@H](N)Cc1c[nH]cn1)[C@@H](C)O)[C@@H](C)O)C(=O)NCC(=O)NCC(=O)N[C@@H](CCC(N)=O)C(=O)N[C@@H](CC(N)=O)C(=O)N[C@@H](CCCNC(=N)N)C(=O)N[C@@H](Cc1c[nH]c2ccccc12)C(=O)N[C@@H](CCCCN)C(=O)N[C@@H](C)C(=O)NCC(N)=O [peptide 2] (H-HNTFTMGGQNRWKAG-NH2)
EC50 (ArCRZR): 115 nM

CRZ: other GnRH/CRZ-type peptide (Drosophila corazonin) (QTFQYSRGWTN; ends and bridges not checked; UniProt Q26377 20-30, looked up)
activation of ArGnRHR by other GnRH/CRZ-type or starfish neuropeptides (in words) (ArGnRHR): Neither receptor was activated | activation of ArCRZR by other GnRH/CRZ-type or starfish neuropeptides (in words) (ArCRZR; CHO-K1/aequorin/Gα16 cells): Neither receptor was activated

Drosophila AKH: other GnRH/CRZ-type peptide (Drosophila adipokinetic hormone) (QLTFSPDW; ends and bridges not checked; UniProt P61855 23-30, looked up)
activation of ArGnRHR by other GnRH/CRZ-type or starfish neuropeptides (in words) (ArGnRHR): Neither receptor was activated | activation of ArCRZR by other GnRH/CRZ-type or starfish neuropeptides (in words) (ArCRZR; CHO-K1/aequorin/Gα16 cells): Neither receptor was activated

NGFFYamide
activation of ArGnRHR by other GnRH/CRZ-type or starfish neuropeptides (in words) (ArGnRHR): Neither receptor was activated | activation of ArCRZR by other GnRH/CRZ-type or starfish neuropeptides (in words) (ArCRZR; CHO-K1/aequorin/Gα16 cells): Neither receptor was activated

pQILCARAFTYTHTW-NH2 [candidate neuropeptide in the cephalochordate Branchiostoma floridae]
activation of B. floridae GnRH-type receptors (in words) (GnRH-type receptors): neither of two GnRH-type receptors | activation of B. floridae CRZ-type receptors (in words) (CRZ-type receptor): activates one of two CRZ-type receptors
